The record followed here is paper PMC5228125 (Scientific Reports, 2017).

The target of the test is SARS-CoV PLpro (Severe acute respiratory syndrome coronavirus, UniProt P0C6X7). In kind it is cell-based.

On to `CC(=O)Nc1cccc(CNC(=O)C2CCN([C@H](C)c3cccc4ccccc34)CC2)c1` [compound 3e], for which the “Effect on SARS-CoV PLpro activity in the biosensor assay” value is “blocks”.
